{"source": "paper PMC8954204", "about": "“Synthesis and Evaluation of a ^18F-Labeled Ligand for PET Imaging of Colony-Stimulating Factor 1 Receptor” (Pharmaceuticals, 2022)", "key": {"CSF1R [1]": {"tested_on": "CSF1R", "parameters": "method as in PMID 33757319", "settings": "rhesus monkey; cited from earlier work"}, "CSF1R [2]": {"molecular_target": "T1, CSF1R (Homo sapiens, UniProt P07333)", "T1 construct": "purchased Abcam", "T1 sequence (P07333 20-972, species assumed)": "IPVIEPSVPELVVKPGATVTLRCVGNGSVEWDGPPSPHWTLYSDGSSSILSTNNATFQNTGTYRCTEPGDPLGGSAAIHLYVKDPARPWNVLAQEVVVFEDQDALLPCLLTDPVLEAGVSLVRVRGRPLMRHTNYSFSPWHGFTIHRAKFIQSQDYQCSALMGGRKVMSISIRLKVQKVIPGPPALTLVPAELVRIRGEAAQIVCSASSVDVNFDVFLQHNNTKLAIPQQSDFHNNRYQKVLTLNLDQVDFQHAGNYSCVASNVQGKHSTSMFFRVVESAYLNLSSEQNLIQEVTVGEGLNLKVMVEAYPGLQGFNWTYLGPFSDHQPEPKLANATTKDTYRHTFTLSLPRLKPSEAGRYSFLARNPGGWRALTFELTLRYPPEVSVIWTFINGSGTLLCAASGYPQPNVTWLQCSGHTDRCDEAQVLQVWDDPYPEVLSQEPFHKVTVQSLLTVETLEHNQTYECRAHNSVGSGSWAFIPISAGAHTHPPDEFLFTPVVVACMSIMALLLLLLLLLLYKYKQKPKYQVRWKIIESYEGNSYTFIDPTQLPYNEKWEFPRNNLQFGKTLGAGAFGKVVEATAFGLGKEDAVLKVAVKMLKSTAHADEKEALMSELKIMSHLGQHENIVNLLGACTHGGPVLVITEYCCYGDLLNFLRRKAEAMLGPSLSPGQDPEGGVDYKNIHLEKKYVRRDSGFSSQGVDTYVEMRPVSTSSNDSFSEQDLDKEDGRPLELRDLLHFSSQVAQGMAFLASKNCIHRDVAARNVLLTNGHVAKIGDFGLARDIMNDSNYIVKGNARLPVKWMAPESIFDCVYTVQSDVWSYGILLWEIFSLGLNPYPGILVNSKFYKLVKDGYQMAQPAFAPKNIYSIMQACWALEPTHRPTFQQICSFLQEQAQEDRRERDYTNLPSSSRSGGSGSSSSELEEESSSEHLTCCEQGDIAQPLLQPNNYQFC", "assay": "binding study of radioligand on CSF1R-coated well plates", "protocol": "A binding study of radioligand [^18F]1 for CSF1R was also performed using well plates coated with CSF1R.\nA binding study of [^18F]1 for CSF1R was performed using detachable 96-well polystyrene plates (Nest Scientific, Rahway, NJ, USA). The plates were coated with 50 μL of CSF1R (200 μg/mL) in 0.05 M carbonate-bicarbonate buffer (pH 9.6). Non-coated plates were used for a control experiment. The CSF1R-coated and non-coated plates were incubated at 4 °C overnight and washed three times with PBS-T (20 mM PBS (pH 7.4) with 0.05% Tween-20). The unoccupied sites were blocked with blocking buffer (5% BSA in PBS-T) at room temperature for 1 h, and the plates were washed three times with PBS-T. [^18F]1 was dissolved in DMSO, and two-fold serial dilutions ranging from 1:100 to 1:400 were made from the radioligand solution. The diluted radioligand solutions were added to the CSF1R-coated and non-coated wells, which were then incubated at room temperature for 1 h. After incubation, the plates were washed three times with PBS-T. The wells were detached, and the radioligand bound to the wells was measured using a gamma counter and expressed as counts per minute (cpm). All experiments were performed in triplicate."}, "[3]": {"assay": "metabolism study, HPLC of brain homogenates and blood samples", "assay_type": "in vivo, ICR mice", "settings": "control mice", "protocol": "In order to confirm that the brain uptake was due to the radioligand, we analyzed the brain homogenates and blood samples of control mice using HPLC. […] However, approximately 65% of the radioligand in the blood samples was converted to polar radiometabolites within 30 min after injection (Figure S3).\nICR mice (n = 1 per time point) were injected with [^18F]1 (18.5 MBq) via a tail vein. At 5 and 30 min after injection, mice were sacrificed, and samples of brain and blood were obtained. The samples were homogenized in 1 mL of acetonitrile and centrifuged. The supernatants were analyzed by HPLC using an analytical column eluted with a 45:55 mixture of 0.05 M ammonium formate (aq.) and acetonitrile at a flow rate of 1 mL/min. Eluates were monitored using a NaI(T1) radioactivity detector."}, "[4]": {"assay": "ex vivo biodistribution in control, LPS and LPS+block mice", "parameters": "species or system ICR mice", "settings": "for blood uptake / brain uptake / femur uptake / kidney uptake / liver uptake / muscle uptake / spleen uptake: 45 min after i.v. injection, n = 4", "protocol": "Ex vivo biodistribution studies were performed in three groups of mice (control, LPS, and LPS+block groups) at 45 min after intravenous (i.v.) injection of [^18F]1. […] Therefore, we performed the ex vivo biodistribution studies at 45 min after injection of [^18F]1 (Table 2). […] The relatively low level of inhibition can be attributed to the injection route and time of the blocking agent, i.p. administration 5 min prior to radioligand injection, which might not have allowed time for sufficient blocking. However, most of the PET radioligands currently developed for CSF1R imaging have low uptake or high non-specific binding in the brains of rodents and non-human primates. […] In this context, further blocking studies of [^18F]1 need to be conducted using the optimized injection time points of the blocking agents and using other potent CSF1R inhibitors as the blocking agents. […] In addition, these biodistribution data matched with the whole-body PET images of the control and LPS mice (Figure S2).\nICR male mice aged between 5 and 6 weeks were used in this study. The mice were provided drinking water and a normal diet ad libitum and were maintained under a 12 h light-dark cycle at 24 ± 1 °C with 50% humidity. The LPS-treated mouse model was prepared by injecting LPS (10 mg/kg in saline) i.p. into mice, and all experiments were carried out on the third day after LPS injection. Tissue radioactivity was counted using an automatic gamma counter (PerkinElmer, Waltham, MA, USA). MicroPET/CT images were acquired using an Inveon microPET/CT scanner (Siemens Medical Solutions, Knoxville, TN, USA).\nICR mice were divided into three groups: control, LPS, and LPS+block groups (n = 4 per group). […] Control and LPS-treated mice were injected i.p. with 100 μL of vehicle (10% DMSO-saline) at 5 min prior to the radioligand injection. At 45 min after radioligand injection, mice were sacrificed by cervical dislocation, and the blood and major tissues (brain, muscle, femur, liver, spleen, and kidney) were separated, weighed, and counted. Data are expressed as a percentage of injected dose per gram of tissue (% ID/g)."}, "[5]": {"assay": "octanol-water partition coefficient", "assay_type": "physicochemical", "settings": "1-octanol/water; read-out: log P (octanol-water partition coefficient)", "protocol": "Radioligand [^18F]1 was dissolved in 800 μL 1-octanol and mixed with 800 μL water, vortexed vigorously for 5 min, and centrifuged. Two layers were separated, and 100 μL aliquots of the 1-octanol and aqueous layers were removed and counted. Samples from the 1-octanol and aqueous layers were repartitioned until consistent values were obtained. The log P is expressed as the logarithm of the ratio of the counts per minute from octanol versus that of water."}, "[6]": {"assay": "dynamic microPET/CT imaging, whole brain time activity curve", "assay_type": "in vivo, ICR mice", "settings": "control and LPS mouse, whole brain TAC", "excerpt": "Dynamic PET/CT images of control and LPS mice were acquired, and the brain uptake was higher in the LPS mouse than in the control mouse (Figure 4A). […] In the control mouse, there was uptake in the decreasing order of the thalamus, striatum, hypothalamus, frontal cortex, and cerebellum (Figure 4C). In the 5.5-week-old mice used in our study, the frontal cortex and cerebellum had similar levels of uptake, although the cerebral cortex has markedly higher CSF1R expression than does the cerebellum in older adult mice. In the LPS mouse, a pattern similar to that of the control mouse was observed, with high uptake in the thalamus and striatum, and intermediate to low uptake in the hypothalamus, cerebellum, and frontal cortex (Figure 4C).\nDynamic PET scans of mice (one control and one LPS) were initiated simultaneously with tail vein injection of [^18F]1 (7.4 ± 0.1 MBq/mouse) and performed for 60 min (15 s × 8 frames, 30 s × 10 frames, 60 s × 3 frames, 240 s × 5 frames, 300 s × 6 frames, 32 frames in total); CT images followed for 20 min. […]\nAnalysis of dynamic PET data was performed using the PMOD 3.308 software (PMOD Technologies, Zurich, Switzerland). […] Several volumes of interest (VOIs) were determined on the mouse brain template: whole brain, striatum (mean value of the left and right striata), thalamus, hypothalamus, frontal cortex, and cerebellum. […]"}, "CSF1R [7]": {"molecular_target": "T1, CSF1R", "assay": "FRET-based Z'-LYTE kinase assay, binding affinity for CSF1R", "assay_type": "biochemical", "settings": "FRET-based method, 1 mM ATP, mean ± S.D. of three measurements"}, "[8]": {"settings": "LPS+block mice (CPPC 1 mg/kg i.p. 5 min before)"}}, "data": [{"smiles": "COc1ccc(COc2ccc(Cc3cnc(N)nc3N)cc2O[11CH3])cc1", "note": "[[^11C]GW2580, 5-(3-[^11C]methoxy-4-((4-methoxybenzyl)oxy)benzyl)pyrimidine-2,4-diamine]", "values": [{"measurement": "blocking of brain uptake with GW2580", "setting": "CSF1R [1]", "value": 30, "unit": "%"}]}, {"smiles": "N#Cc1ccc(C(=O)Nc2ccc(N3CCN(CC[18F])CC3)cc2N2CCCCC2)o1", "note": "[[^18F]1, 5-cyano-N-(4-(4-(2-[^18F]fluoroethyl)piperazin-1-yl)-2-(piperidin-1-yl)phenyl)furan-2-carboxamide]", "values": [{"measurement": "radioligand bound to CSF1R-coated wells relative to non-coated wells (control)", "setting": "CSF1R [2]; 0.93 kBq radioligand", "value": 3.31, "unit": "fold"}, {"measurement": "radioligand bound to CSF1R-coated wells relative to non-coated wells (control)", "setting": "CSF1R [2]; 1.85 kBq radioligand", "value": 5.07, "unit": "fold"}, {"measurement": "radioligand bound to CSF1R-coated wells relative to non-coated wells (control)", "setting": "CSF1R [2]; 3.7 kBq radioligand", "value": 7.14, "unit": "fold"}, {"measurement": "radioligand in blood converted to polar radiometabolites", "setting": "[3]; blood samples, within 30 min after injection", "value": "approximately 65%"}, {"measurement": "state of radioligand in the brain", "setting": "[3]; brain homogenates at 5 and 30 min after injection", "value": "intact"}, {"measurement": "increase of brain uptake in LPS mice compared to control mice", "setting": "[4]; 45 min after radioligand injection", "value": 78, "unit": "%"}, {"measurement": "blood uptake", "setting": "[4]; LPS mice", "value": "1.21 ± 0.11", "unit": "% ID/g"}, {"measurement": "brain uptake", "setting": "[4]; LPS mice", "value": "2.14 ± 0.19", "unit": "% ID/g"}, {"measurement": "femur uptake", "setting": "[4]; LPS mice", "value": "1.95 ± 0.44", "unit": "% ID/g"}, {"measurement": "kidney uptake", "setting": "[4]; LPS mice", "value": "2.23 ± 0.08", "unit": "% ID/g"}, {"measurement": "liver uptake", "setting": "[4]; LPS mice", "value": "6.04 ± 0.91", "unit": "% ID/g"}, {"measurement": "muscle uptake", "setting": "[4]; LPS mice", "value": "1.03 ± 0.07", "unit": "% ID/g"}, {"measurement": "spleen uptake", "setting": "[4]; LPS mice", "value": "2.47 ± 0.19", "unit": "% ID/g"}, {"measurement": "blood uptake", "setting": "[4]; [8]", "value": "1.30 ± 0.11", "unit": "% ID/g"}, {"measurement": "brain uptake", "setting": "[4]; [8]", "value": "1.67 ± 0.16", "unit": "% ID/g"}, {"measurement": "femur uptake", "setting": "[4]; [8]", "value": "2.11 ± 0.37", "unit": "% ID/g"}, {"measurement": "kidney uptake", "setting": "[4]; [8]", "value": "2.04 ± 0.10", "unit": "% ID/g"}, {"measurement": "liver uptake", "setting": "[4]; [8]", "value": "3.15 ± 0.62", "unit": "% ID/g"}, {"measurement": "muscle uptake", "setting": "[4]; [8]", "value": "1.20 ± 0.19", "unit": "% ID/g"}, {"measurement": "spleen uptake", "setting": "[4]; [8]", "value": "1.45 ± 0.13", "unit": "% ID/g"}, {"measurement": "blood uptake", "setting": "[4]; control mice", "value": "0.93 ± 0.05", "unit": "% ID/g"}, {"measurement": "brain uptake", "setting": "[4]; control mice", "value": "1.20 ± 0.06", "unit": "% ID/g"}, {"measurement": "femur uptake", "setting": "[4]; control mice", "value": "1.80 ± 0.09", "unit": "% ID/g"}, {"measurement": "kidney uptake", "setting": "[4]; control mice", "value": "1.97 ± 0.05", "unit": "% ID/g"}, {"measurement": "liver uptake", "setting": "[4]; control mice", "value": "6.87 ± 0.48", "unit": "% ID/g"}, {"measurement": "muscle uptake", "setting": "[4]; control mice", "value": "0.96 ± 0.10", "unit": "% ID/g"}, {"measurement": "spleen uptake", "setting": "[4]; control mice", "value": "1.58 ± 0.20", "unit": "% ID/g"}, {"measurement": "logP", "setting": "[5]", "value": "2.3 ± 0.01"}, {"measurement": "time of peak whole brain uptake after radioligand injection", "setting": "[6]", "value": "≤ 3", "unit": "min"}]}, {"smiles": "N#Cc1ccc(C(=O)Nc2ccc(N3CCN(CCF)CC3)cc2N2CCCCC2)o1", "note": "[Ligand 1, 5-Cyano-N-(4-(4-(2-fluoroethyl)piperazin-1-yl)-2-(piperidin-1-yl)phenyl)furan-2-carboxamide]", "values": [{"measurement": "IC50", "setting": "CSF1R [7]", "value": "3.42 ± 0.33", "unit": "nM"}]}]}
